Reference: patent publication US20200237871A1, “METHODS FOR MITIGATING LIVER INJURY AND PROMOTING LIVER HYPERTROPHY, REGENERATION AND CELL ENGRAFTMENT IN CONJUNCTION WITH RADIATION AND/OR RADIOMIMETIC TREATMENTS” (Janssen Pharmaceutica NV, priority 2019, published 2020)

Tests used:
C57BL6 male mice = experiment: Volume of untreated (non-irradiated) caudate lobe after partial hepatic irradiation (Example 1); type: in vivo, mouse; conditions: 50 Gy to median lobe; 300 μg/kg sc 10 minutes after irradiation; one month after HIR; n=4 per group; p-value <0.00932
Method: 8-12-week-old C57BL6 male mice were housed in the Institute for Animal Studies at Albert Einstein College of Medicine and fed regular chow. Animals were weighed in the beginning of the experiment and before tissue collection. All experiments were performed to according to protocols approved by Institutional Animal Care and Use Committee at Albert Einstein College of Medicine.
Image-guided external beam irradiation was performed using a small animal radiation research platform (SARRP, Xstrahl Inc., Suwanee, Ga.). Mice were given gastrografin contrast through gavage to improve visualization of the gastrointestinal (GI) tract. After approximately 2 minutes, mice were positioned on a tubular couch and anesthetized with ˜2% Isofluorane (Isothesia, USP) in 2 L/min pure oxygen. A cone-beam computed tomography (CBCT) scan was acquired and a treatment plan irradiating the median lobe and right lobe was generated using the MuriPlan software. To minimize toxicity, irradiation was performed using 2 parallel opposed fields. […]
With fixed physiologic organ size, non-irradiated liver undergoes hypertrophy in effort to compensate for the irradiated atrophic lobe. The volume of the caudate lobe was measured as a non-irradiated lobe in this experiment.

cirrhotic mice = experiment: Lobe weight ratio / hypertrophy of non-irradiated lobe in cirrhotic mice after HIR (Example 5); type: in vivo, mouse
Method: Male C57BL/6 DPPIV knockout male mice (10-14 weeks) were injected intraperitoneally with carbon tetrachloride (CCl4) twice a week for a minimum of 12 weeks until a maximum of when 5 out of 30 mice perish from the CCl4 injection. Immediately after, the animals were randomly distributed into the experimental groups.
Image-guided external beam irradiation was performed using a small animal radiation research platform (SARRP, Xstrahl Inc., Suwanee, Ga.). Mice were given gastrografin contrast through gavage to improve visualization of the gastrointestinal (GI) tract. […]
The methods were identical to Experiment 4 as described above with the exception that the CCl4 dose was increased to 20% in olive oil over 12 weeks. To evaluate the effect of RWJ-800088+Liver Sinusoidal Endothelial Cells (LSEC), RWJ-800088+Plerixafor (a selective inhibitor of CXCR4 administered pre- and post-irradiation) on radiation induced liver disease as measured by SPECT-CT in cirrhotic mice after single hepatic irradiation (HIR) at 50 Gy. […]
The dosing solution of RWJ-800088 was prepared as described in Experiment 4. […] The number of viral particles and infectious units' ratio was determined by infecting 293 cells at various dilutions, followed by immunocytochemical staining for adenoviral hexons. The infectious titer was calculated from the number of plaques formed per 1,000 viral particles. […]

**Q.** With “methoxypolyethyleneglycol20000-propionyl-L-Isoleucyl-L-Glutamyl-Glycyl-L-Prolyl-L-Threonyl-L-Leucyl-L-Arginyl-L-Glutaminyl-L-2-Naphthylalanyl-L-Leucyl-L-Alanyl-L-Alanyl-L-Arginyl-Sarcosyl-Ne-(methoxypolyethyleneglycol20000-propionyl-L-Isoleucyl-L-Glutamyl-Glycyl-L-Prolyl-L-Threonyl-L-Leucyl-L-Arginyl-L-Glutaminyl-L-2-Naphthyl alanyl-L-Leucyl-L-Alanyl-L-Alanyl-L-Arginyl-Sarcosyl-)-Lysinamide [RWJ-800088]” as the substance, how does the “non-irradiated caudate lobe size, HIR+TPOm vs. HIR+saline” value (C57BL6 male mice) read?
**A.** significant increase

**Q.** What about the “Average Ratio of Right Lobe to Left Lobe Weight” value (cirrhotic mice; HIR + LSEC transplant (48 hours after HIR) + drug, 4 months post-HIR) of the same substance?
**A.** 1.35

**Q.** And the “hypertrophy of the non-irradiated lobe” value (cirrhotic mice; cirrhotic mice, 50 Gy HIR, RWJ-800088 with LSEC transplants)?
**A.** increase in hypertrophy
